Measurements as given in patent US9551711B2, “Compositions and methods for detecting nitration of PKG-1α and methods of use thereof” (Augusta University Research Institute, Inc., priority 2013, dated 2017).

Legend:
PKG-1α [1] = assay: PKG-1α protein levels in transfected PASMC (Western blot); type: cell-based, lamb; details: SIN-1 500 μM, 48 h
Experimental: Therefore, the effect of these events were investigated in PASMC transiently transfected with expression plasmids containing WT- and Y247F-PKG-1α. The effect of nitration on pulmonary arterial smooth muscle cell (PASMC) growth and metabolism was determined. PASMC were transiently transfected with expression plasmids containing WT-PKG-1α, Y247F-PKG-1α or pDEST40 (as a control) for 20 h. Cells were then exposed or not to SIN-1 (500 μM, 48 h) and the effect on PKG protein levels (FIG. 2A) and activity determined (FIG. 2B).

PKG-1α [2] = molecular target: T1, PKG-1α (Homo sapiens, UniProt Q13976); assay: [3H]cGMP binding assay on immunopurified PKG-1α; parameters: an expression plasmid containing a full length WT-PKG-1α cDNA; made in house; host or cells: HEK-293T; the results paragraph b304 says PASMC; details: WT-PKG-1α; SIN-1 treatment
T1 sequence (Q13976 2-671): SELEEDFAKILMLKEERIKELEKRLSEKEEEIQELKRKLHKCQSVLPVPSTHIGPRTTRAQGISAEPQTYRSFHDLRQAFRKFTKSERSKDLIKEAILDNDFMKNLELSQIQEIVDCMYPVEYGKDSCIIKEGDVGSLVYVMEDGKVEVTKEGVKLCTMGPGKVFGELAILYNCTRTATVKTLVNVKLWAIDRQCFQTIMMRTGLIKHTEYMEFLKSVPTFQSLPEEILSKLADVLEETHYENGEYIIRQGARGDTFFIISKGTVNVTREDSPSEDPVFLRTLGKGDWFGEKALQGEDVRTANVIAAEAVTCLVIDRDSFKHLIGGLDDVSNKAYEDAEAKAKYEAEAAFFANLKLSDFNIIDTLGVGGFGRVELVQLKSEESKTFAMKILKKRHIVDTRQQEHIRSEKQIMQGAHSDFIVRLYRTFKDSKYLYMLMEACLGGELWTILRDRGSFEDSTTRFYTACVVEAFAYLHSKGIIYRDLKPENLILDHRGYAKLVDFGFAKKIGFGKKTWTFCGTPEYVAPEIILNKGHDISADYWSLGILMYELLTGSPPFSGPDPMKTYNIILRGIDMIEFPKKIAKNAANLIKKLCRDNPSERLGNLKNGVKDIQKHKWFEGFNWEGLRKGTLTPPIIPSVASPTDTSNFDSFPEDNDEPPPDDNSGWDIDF
Experimental: HEK-293T cells were transiently transfected with either the WT-PKG-1α or the Y247FPKG-1α cDNA using Effectene transfection reagent (Qiagen), according to the manufacturer's instructions. Briefly, the cells were split the day before the transfection to low cell densities (25%) and were transfected 24 h later. After 48 h of transfection, the cells were incubated in DMEM serum free media containing 1% FBS and antibiotics for 4 h and then treated with or without SIN-1 (500 μM), for 30 min. This method produced an approximate 70% transfection efficiency of HEK-293T cells, as measured using green fluorescent protein vectors. […]
The batches of supernatant were pooled, and 2 μg of anti-PKG-1α antibody per mg of protein were added to the extract and rocked at 4° C. […] After 15 min of agitation at 4° C., the beads were pelleted by centrifugation, and the supernatant containing the PKG-1α protein was collected, quantified using Bradford reagent, and stored at −80° C.
To assay the binding of cGMP to WT- and Y247F-PKG-1α the enzymes were saturated with cGMP by incubating 50 μl aliquots of the diluted PKG constructs for 60 min at room temperature with 50 μl of [^3H]cGMP and 150 μl of cGMP-binding assay mixture (25 mM K2HPO4, 25 mM KH2PO4, 1 mM EDTA, pH 6.8, 2M NaCl, 200 μM 3-isobutyl-1-methylxanthine). […] The dissociation constant (Kd) values were determined using GraphPad Prism graphics. […]

maximal [3H]cGMP binding (PKG-1α [2]): significantly attenuated
Substance: 3-morpholinosydnonimine N-ethylcarbamide [SIN-1]
PKG-1α protein levels (PKG-1α [1]): no effect
